From the supplement of paper PMC10307832

Columns and labels:
Experiment in all cases: relative viability (nuclei count vs DMSO), 5 days (fraction); higher = more cells survive
[1] = compound: C1/C(=C\C2=CC=CS2)/C(=O)/C(=C/C3=CC=CS3)/C1 + CC(=O)Nc1cccc(-n2c(=O)n(C3CC3)c(=O)c3c(Nc4ccc(I)cc4F)n(C)c(=O)c(C)c32)c1 [Trametinib] (partner 0.02 µM)
Procedure, shortened: (§1)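 Lung cancer cell lines in 1536-well plates got either a single drug or a fixed anchor-drug dose together with five library-drug doses (not always all listed) in √10 steps, by pin tool, on the day after seeding. Nuclei were counted after 5 days, and relative viability is the treated-to-vehicle ratio of nuclei counts. Values are medians of duplicate plates.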

[2] = compound: C[C@]12O[C@H](C[C@]1(O)CO)n1c3ccccc3c3c4c(c5c6ccccc6n2c5c31)CNC4=O [Lestaurtinib] + CC1(C)CCC(c2ccc(Cl)cc2)=C(CN2CCN(c3ccc(C(=O)NS(=O)(=O)c4ccc(N[C@H](CCN5CCOCC5)CSc5ccccc5)c(S(=O)(=O)C(F)(F)F)c4)cc3)CC2)C1 [Navitoclax] (partner 0.5 µM)
Procedure, shortened: as §1

[3] = compound: C[C@]12O[C@H](C[C@]1(O)CO)n1c3ccccc3c3c4c(c5c6ccccc6n2c5c31)CNC4=O [Lestaurtinib] + N=C(N)NC(=N)NCCc1ccccc1 [Phenformin] (partner 250 µM)
Procedure, shortened: as §1

Lestaurtinib + Olaparib = compound: C[C@]12O[C@H](C[C@]1(O)CO)n1c3ccccc3c3c4c(c5c6ccccc6n2c5c31)CNC4=O [Lestaurtinib] + O=C(c1cc(Cc2n[nH]c(=O)c3ccccc23)ccc1F)N1CCN(C(=O)C2CC2)CC1 [Olaparib] (partner 8 µM)
Procedure, shortened: as §1

Cell Line | relative viability ([1]; first compound 0.2 µM) | relative viability ([1]; first compound 0.6325 µM) | relative viability ([1]; first compound 2 µM) | relative viability ([1]; first compound 6.325 µM) | relative viability ([1]; first compound 20 µM) | relative viability ([2]; first compound 0.005 µM) | relative viability ([2]; first compound 0.01581 µM) | relative viability ([2]; first compound 0.05 µM) | relative viability ([2]; first compound 0.1581 µM) | relative viability ([2]; first compound 0.5 µM) | relative viability ([3]; first compound 0.005 µM) | relative viability ([3]; first compound 0.01581 µM) | relative viability ([3]; first compound 0.05 µM) | relative viability ([3]; first compound 0.1581 µM) | relative viability ([3]; first compound 0.5 µM) | relative viability (Lestaurtinib + Olaparib; first compound 0.005 µM) | relative viability (Lestaurtinib + Olaparib; first compound 0.01581 µM) | relative viability (Lestaurtinib + Olaparib; first compound 0.05 µM) | relative viability (Lestaurtinib + Olaparib; first compound 0.1581 µM) | relative viability (Lestaurtinib + Olaparib; first compound 0.5 µM)
NCI-H2170 | 0.918 | 0.92 | 0.863 | 0.78 | 0.867 | 0.378 | 0.393 | 0.368 | 0.442 | 0.263 | 0.41 | 0.424 | 0.42 | 0.32 | 0.244 | 0.551 | 0.596 | 0.407 | 0.45 | 0.206
NCI-H2228 | 0.559 | 0.517 | 0.414 | 0.43 | 0.424 | 0.985 | 1.29 | 0.839 | 0.554 | 0.162 | 0.235 | 0.215 | 0.237 | 0.218 | 0.127 | 0.644 | 0.455 | 0.318 | 0.432 | 0.137
NCI-H2347 | 0.273 | 0.271 | 0.27 | 0.26 | 0.28 | 0.835 | 0.87 | 0.575 | 0.526 | 0.42 | 0.304 | 0.448 | 0.316 | 0.309 | 0.39 | 0.567 | 0.639 | 0.581 | 0.529 | 0.607
NCI-H2405 | 0.688 | 0.578 | 0.603 | 0.585 | 0.699 | 1 | 0.86 | 0.889 | 0.55 | 0.216 | 0.426 | 0.392 | 0.387 | 0.28 | 0.284 | 0.98 | 1.01 | 0.913 | 0.846 | 0.486
NCI-H3122 | 0.25 | 0.222 | 0.226 | 0.233 | 0.251 | 1.13 | 1.1 | 1.12 | 1.12 | 0.536 | 0.365 | 0.431 | 0.372 | 0.363 | 0.175 | 0.862 | 0.637 | 0.552 | 0.598 | 0.5
PC-3 [JPC-3] |  | 0.731 | 0.753 | 0.613 | 0.759 | 0.84 | 0.788 | 0.763 | 0.65 | 0.55 | 0.434 | 0.504 | 0.352 | 0.477 | 0.386 | 1.2 | 1.3 | 0.818 | 1.03 | 0.698
PC-14 | 0.792 | 0.829 | 0.761 | 0.696 | 0.663 | 1.09 | 1.07 | 0.765 | 0.863 | 0.607 | 0.445 | 0.871 | 0.633 | 0.353 | 0.106 | 0.252 | 0.243 | 0.242 | 0.238 | 0.179
RERF-LC-KJ | 0.924 | 0.879 | 0.846 | 0.741 | 0.739 | 1.24 | 1.1 | 0.792 | 0.618 | 0.641 | 0.448 | 0.38 | 0.391 | 0.419 | 0.295 | 1.13 | 1.07 | 0.961 | 0.952 | 0.399
SK-LU-1 | 0.563 | 0.503 | 0.536 | 0.411 | 0.489 | 0.822 | 0.736 | 0.509 | 0.292 | 0.173 | 0.46 | 0.488 | 0.293 | 0.329 | 0.163 | 0.431 | 0.397 | 0.382 | 0.362 | 0.218
SK-MES-1 | 0.601 | 0.58 | 0.549 | 0.502 | 0.568 | 1.35 | 1.25 | 0.59 | 0.354 | 0.343 | 0.693 | 0.59 | 0.484 | 0.441 | 0.186 | 0.782 | 0.676 | 0.448 | 0.33 | 0.175
SW 1573 | 0.637 | 0.573 | 0.674 | 0.491 | 0.596 | 1.14 | 1.01 | 0.851 | 0.699 | 0.68 | 0.421 | 0.439 | 0.214 | 0.28 | 0.0937 | 0.554 | 0.567 | 0.451 | 0.383 | 0.145
